Test results published in US6500845B1, “Lactam derivatives as immunomodulating agents” (Gruenenthal GmbH, priority 1994, dated 2002).
In brackets after ≈: the same amount, converted by molar mass.

Tests used:
[1] = tested on: IL-2 release in vivo (T-lymphocytes stimulated by staphylococcal enterotoxin B); parameters: species or system Balb/c mice; conditions: mouse; for ED40 (dosage reducing serum IL-2 concentrations by 40%): ip
[2] = tested on: LPS-induced TNF-α release, human mononuclear cells; assay: LPS-induced TNF-α release from human mononuclear cells of the peripheral blood; assay type: cell-based; conditions: 20 hours incubation; for Inhibition of TNF-α release in (%): concentration of 50 μ/ml, LPS 2.5 μg; for IC50: Homo sapiens, LPS-induced, read-out: IC50 (50% inhibition in the release of TNF-α)
From the text: The release of cytokines from human mononuclear cells of the peripheral blood, i.e. T-cells, B-cells and monocytes, can be studied in vitro after stimulation by lipopolysaccharide (LPS) or the toxic shock syndrome toxin-1 (TSST-1). LPS is a component of the bacterial cell wall and stimulates monocytes and macrophages. TSST-1 is a bacterial superantigen that stimulates T-cells as well as monocytes/macrophages. Superantigens bind to the Vβ chain of the T-cell receptor and to the MHC class II and thus simulate the recognition by a specific T-cell receptor of an antigen presented by the MHC class II. Activation of cells by LPS or TSST-1 induces the release of TNF-α, IFN-γ and other cytokines.
Mononuclear cells were prepared from the heparinized blood of at least three voluntary donors. For this purpose, 20 ml blood samples each were separated according to well known procedures using a Ficoll-Paque gradient. The cells were harvested and washed three times with a cell culture medium. This cell culture medium was composed of RPMI 1640 medium supplemented with 2 mM of glutamine (Life Technologies, Eggenstein, Germany), 10% fetal calf serum (Life Technologies), 50 μg/ml of streptomycin (Sigma, Deisenhofen, Germany), 50 IU/ml of penicillin (Sigma) and 100 μM of b-mercaptoethanol (Merck, Darmstadt, Germany). The mononuclear cells were suspended in 15 ml of cell culture medium and separated in 1 ml fractions in sterile 24-well incubation plates (Sigma). 1 μl of dimethylsulfoxide (DMSO) or 1 μl of a DMSO-solution containing 5 ′ by weight of a compound according to the invention was added to each of the 1 ml fractions. After incubation for 1 hour in a CO2-incubator (5% CO2, 90% humidity), 2.5 μg of LPS (from E. coli 0127: B8, Sigma) or 0.1 μg of TSST-1 (Sigma) were added to each of the fractions containing a compound according to the invention. Incubation of the cultures was continued for 20 hours. The concentrations of TNF-α and IFN-γ in the cell culture supernatants were determined with commercial ELISA-tests (Boehringer Mannheim, Germany; Endogen, Boston, Mass.).
The IC50 value is the concentration in μg/ml which produces a 50% inhibition in the release of TFN-α.

[3] = tested on: TSST-1-induced release of TNF-α, human mononuclear cells; assay type: cell-based
[4] = tested on: TSST-1-induced release of IFN-γ, human mononuclear cells; assay type: cell-based

| Structure (SMILES) | Maximum inhibition of serum IL-2 increase in % [1] [%] | ED40 (dosage reducing serum IL-2 concentrations by 40%) [1] | Inhibition of TNF-α release in (%) [2] [%] | IC50 [2] [µg/mL] | Effect on TSST-1-induced release of TNF-α [3] | Effect on TSST-1-induced release of IFN-γ [4] | melting point [°C] |
| --- | --- | --- | --- | --- | --- | --- | --- |
| CC1(n2[se]c3ccccc3c2=O)CCCNC1=O (stereo not drawn) [Example 1, 2-(3-Methyl-2-oxo-piperidin-3-yl)-benzo[d]isoselenazol-3-one] | 43 ± 5 | ca. 20^ mg/kg i.p. | 93 ± 1 |  |  |  |  |
| CC1(N2Cc3ccccc3C2=O)CCC(=O)NC1=O (single isomer, unassigned; (-)) [Example 3 (−) enantiomer, (−)-3-Methyl-3-(1-oxo-1,3-dihydro-isoindol-2-yl)-piperidine-2,6-dione] | 54 ± 5 | 297 mg/kg i.p. | 82 ± 5 | 8 (≈ 31 µM) |  |  |  |
| CC1(N2Cc3ccccc3C2=O)CCC(=O)NC1=O (racemic) [Example 2, 3-Methyl-3-(1-oxo-1,3-dihydro-isoindol-2-yl)-piperidine-2,6-dione] | 56 ± 3 | 112 mg/kg i.p. | 72 ± 8 | 10 (≈ 38.7 µM) | enhanced compared to thalidomide | enhanced compared to thalidomide | 231 to 232 |
| O=C1CCC(N2C(=O)c3ccccc3C2=O)C(=O)N1 (stereo not drawn) [Thalidomide, reference compound] | 56 ± 10 | 171 mg/kg i.p. | 54 ± 7 | 50 (≈ 194 µM) |  |  |  |
| CC1(n2sc3ccccc3c2=O)CCCNC1=O (stereo not drawn) [Example 4, 2-(3-methyl-2-oxo-piperidin-3-yl)-benzo[d]isothiazol-3-one] | 52 ± 3 | <10 mg/kg i.p. | 93 ± 9 |  |  |  |  |
